Measurements from US20110262502A1, “PULMONARY DELIVERY OF 17-HYDROXYPROGESTERONE CAPROATE (17-HPC)” (Prairie Pharmaceuticals LLC, priority 2010, published 2011).

Tested on: PHA-induced IL-2 production in PBMCs
Test: PHA-induced IL-2 production in PBMCs from healthy male smokers (no IL-2/IL-4 added), ELISA
Assay type: cell-based, human
Design: PR2005 IC50: unit not given here
Conditions: for mean IL-2: Table 1; for % inhibition of PHA stimulation of IL-2: Table 2
Method: PBMCs were isolated from human blood buffy coats provided by a regional blood center. Random buffy coat cells from male donors were a by-product of blood processed for clinical use and no details (i.e., personal identification and background) were provided except for tobacco use. […] PBMCs were separated using a porous high density polyethylene barrier (HISTOPAQUE from GEHealthcare Bio-Sciences AB (US). After centrifugation of blood samples in each tube (35 minutes at 800×g at room temperature, or RT), PBMCs were collected and washed twice with Hank's buffered saline solution (HBSS). PBMCs were resuspended in RPMI-1640 medium containing 10% fetal calf serum (FCS) and 15 mM glutamine and cells were counted and plated.
PBMCs (2×10^6) were incubated with or without IL-2 (13 ng/ml) and IL-4 (6.5 ng/ml) for 48 hours in RPMI-1640 medium containing 10% FCS and 2 mM glutamine. […] IL-2 and IL-4 stimulated PBMCs were also plated at a concentration of 10^6 cells/ml in 96-well plates ready for PHA (15 μg/mL, 24 hours) stimulation of cytokine release and detection by ELISA.
Serial dilutions of standards and PBMCs' supernatants were measured by enzyme linked immunosorbent assay to determine IL-2 at baseline and its levels after 17HPC, P4 and MAP treatments. Optical density was measured at 450 nm and corrected with 550 nm. The concentration of TL-2 was calculated using the standard curve and taking into account the supernatant dilution used. Detection limit for IL-2 is 4.0 pg/ml.
Data are expressed as mean±SD. The efficacies of the drug treatments were analyzed by paired t-test. One-way analysis of variance was used to compare three or more matched groups and 95% CI was performed to present groups differences. All graphs indicate mean values of results or % inhibition of PHA-stimulated IL-2. IC50 values were calculated by using a sigmoidal model (BioDataFit). A p value <0.05 was considered statistically significant.
(§1) IL-2 levels were quantified using ELISA.
IL-2 levels were quantified using ELISA. IC50 values were calculated by using a sigmoidal model (BioDataFit).
as §1, §1, §1

Q: What does the source list for `CCCCCC(=O)O[C@]1(C(C)=O)CC[C@H]2[C@@H]3CCC4=CC(=O)CC[C@]4(C)[C@H]3CC[C@@]21C` [17HPC, 17α-HYDROXYPROGESTERONE CAPROATE]?
A: PR2005 IC50 (Dexamethasone 0): 6.434; suppression of PHA induced IL-2 (FIG. 11, 17HPC add-on to Dexamethasone 10^−6 M): ~100%; improvements in Dexamethasone efficacy (synergetic effect of combination) (FIG. 12, 17HPC with Dexamethasone): 25-37%; mean IL-2 (17HPC 10^−5M + Dexamethasone 10^−6M): 24.61 pg/mL; mean IL-2 (17HPC 10^−5M + Dexamethasone 10^−8M): 136.2 pg/mL; mean IL-2 (17HPC 10^−5M + Dexamethasone 10^−10M): 138.6 pg/mL; mean IL-2 (17HPC 10^−5M + Dexamethasone 10^−12M): 176.2 pg/mL; mean IL-2 (17HPC 10^−5M, Dexamethasone 0): 225.6 pg/mL; mean IL-2 (17HPC 10^−7M + Dexamethasone 10^−6M): 9.914 pg/mL; mean IL-2 (17HPC 10^−7M + Dexamethasone 10^−8M): 229.3 pg/mL; mean IL-2 (17HPC 10^−7M + Dexamethasone 10^−10M): 104.5 pg/mL; mean IL-2 (17HPC 10^−7M + Dexamethasone 10^−12M): 111.6 pg/mL; mean IL-2 (17HPC 10^−7M, Dexamethasone 0): 466.3 pg/mL; mean IL-2 (17HPC 10^−10M + Dexamethasone 10^−6M): 27.18 pg/mL; mean IL-2 (17HPC 10^−10M + Dexamethasone 10^−8M): 173.5 pg/mL; mean IL-2 (17HPC 10^−10M + Dexamethasone 10^−10M): 177.7 pg/mL; mean IL-2 (17HPC 10^−10M + Dexamethasone 10^−12M): 132.3 pg/mL; mean IL-2 (17HPC 10^−10M, Dexamethasone 0): 420.6 pg/mL; mean IL-2 (17HPC 10^−11M + Dexamethasone 10^−6M): 9.05 pg/mL; mean IL-2 (17HPC 10^−11M + Dexamethasone 10^−8M): 167.9 pg/mL; mean IL-2 (17HPC 10^−11M + Dexamethasone 10^−10M): 164.4 pg/mL; mean IL-2 (17HPC 10^−11M + Dexamethasone 10^−12M): 275.2 pg/mL; mean IL-2 (17HPC 10^−11M, Dexamethasone 0): 448.2 pg/mL; % inhibition of PHA stimulation of IL-2 (17HPC 10^−5 M + Dexamethasone 10^−6 M): 97%; % inhibition of PHA stimulation of IL-2 (17HPC 10^−5 M + Dexamethasone 10^−8 M): 81%; % inhibition of PHA stimulation of IL-2 (17HPC 10^−5 M + Dexamethasone 10^−10 M): 81%; % inhibition of PHA stimulation of IL-2 (17HPC 10^−5 M + Dexamethasone 10^−12 M): 76%; % inhibition of PHA stimulation of IL-2 (17HPC 10^−5 M, Dexamethasone 0 M): 69%; % inhibition of PHA stimulation of IL-2 (17HPC 10^−7 M + Dexamethasone 10^−6 M): 99%; % inhibition of PHA stimulation of IL-2 (17HPC 10^−7 M + Dexamethasone 10^−8 M): 69%; % inhibition of PHA stimulation of IL-2 (17HPC 10^−7 M + Dexamethasone 10^−10 M): 86%; % inhibition of PHA stimulation of IL-2 (17HPC 10^−7 M + Dexamethasone 10^−12 M): 85%; % inhibition of PHA stimulation of IL-2 (17HPC 10^−7 M, Dexamethasone 0 M): 37%; % inhibition of PHA stimulation of IL-2 (17HPC 10^−10 M + Dexamethasone 10^−6 M): 96%; % inhibition of PHA stimulation of IL-2 (17HPC 10^−10 M + Dexamethasone 10^−8 M): 76%; % inhibition of PHA stimulation of IL-2 (17HPC 10^−10 M + Dexamethasone 10^−10 M): 76%; % inhibition of PHA stimulation of IL-2 (17HPC 10^−10 M + Dexamethasone 10^−12 M): 82%; % inhibition of PHA stimulation of IL-2 (17HPC 10^−10 M, Dexamethasone 0 M): 43%; % inhibition of PHA stimulation of IL-2 (17HPC 10^−11 M + Dexamethasone 10^−6 M): 99%; % inhibition of PHA stimulation of IL-2 (17HPC 10^−11 M + Dexamethasone 10^−8 M): 77%; % inhibition of PHA stimulation of IL-2 (17HPC 10^−11 M + Dexamethasone 10^−10 M): 78%; % inhibition of PHA stimulation of IL-2 (17HPC 10^−11 M + Dexamethasone 10^−12 M): 63%; % inhibition of PHA stimulation of IL-2 (17HPC 10^−11 M, Dexamethasone 0 M): 39%; IL-2 inhibition (add-on of low doses of 17HPC (10^−11 M or 10^−10 M) to lower Dexamethasone doses): ≥ 78%; effect in basal IL-2 level (no PHA stimulation, data not shown): no significant effect; PR2005 IC50 (with Dexamethasone 10^−8M): 6.243; PR2005 IC50 (with Dexamethasone 10^−10M): 11.64; PR2005 IC50 (with Dexamethasone 10^−12M): 10.92
